{"source": "PubChem BioAssay AID1918948", "about": "(Molecular Pharmacology Branch, DTP, NCI, 2023)", "test_system": "K-562 leukemia growth, % test/control", "experiment": "Anticancer human tumor K-562 cell line growth inhibition;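 for all read-outs here: spheroids exposed to compounds for 7 days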;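 for viability, T/C: 100% = DMSO vehicle wells and lower values mean fewer viable cells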", "settings": "spheroids with HUVEC and MSC; for IC50: curve of first compound; for viability, T/C: stronger effect = lower value", "outline": "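Drug combinations with the LSD1 inhibitor iadademstat tested on tumor cells co-cultured as spheroids with endothelial cells and mesenchymal stem cells. Concentrations descended in half-log increments from clinical Cmax or 10 microM.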", "key": {"[1]": {"settings": "second compound 0.1 µM, first compound 0.0316 µM"}, "[2]": {"settings": "second compound 0.1 µM, first compound 0.1 µM"}, "[3]": {"settings": "second compound 0.316 µM, first compound 0.0316 µM"}, "[4]": {"settings": "second compound 0.316 µM, first compound 0.1 µM"}, "[5]": {"settings": "second compound 1 µM, first compound 0.0316 µM"}, "[6]": {"settings": "second compound 1 µM, first compound 0.1 µM"}, "[7]": {"settings": "second compound 3.16 µM, first compound 0.0316 µM"}, "[8]": {"settings": "second compound 3.16 µM, first compound 0.1 µM"}, "[9]": {"settings": "second compound 10 µM, first compound 0.0316 µM"}, "[10]": {"settings": "second compound 10 µM, first compound 0.1 µM"}}, "data": [{"compound": "CC1(C)CCC(CN2CCN(c3ccc(C(=O)NS(=O)(=O)c4ccc(NCC5CCOCC5)c([N+](=O)[O-])c4)c(Oc4cnc5[nH]ccc5c4)c3)CC2)=C(c2ccc(Cl)cc2)C1", "note": "+ NC1CCC(NC2CC2c2ccccc2)CC1", "values": [{"measurement": "IC50", "setting": "second compound 0.1 µM", "result": 6.56, "unit": "µM"}, {"measurement": "IC50", "setting": "second compound 0.316 µM", "result": 6.65, "unit": "µM"}, {"measurement": "IC50", "setting": "second compound 1 µM", "result": 6.57, "unit": "µM"}, {"measurement": "IC50", "setting": "second compound 3.16 µM", "result": 6.94, "unit": "µM"}, {"measurement": "IC50", "setting": "second compound 10 µM", "result": 6.52, "unit": "µM"}, {"measurement": "viability, T/C", "setting": "[1]", "result": 99.8, "unit": "%"}, {"measurement": "viability, T/C", "setting": "[2]", "result": 102, "unit": "%"}, {"measurement": "viability, T/C", "setting": "second compound 0.1 µM, first compound 0.316 µM", "result": 101, "unit": "%"}, {"measurement": "viability, T/C", "setting": "second compound 0.1 µM, first compound 1 µM", "result": 104, "unit": "%"}, {"measurement": "viability, T/C", "setting": "second compound 0.1 µM, first compound 3.16 µM", "result": 109, "unit": "%"}, {"measurement": "viability, T/C", "setting": "second compound 0.1 µM, first compound 10 µM", "result": 19.1, "unit": "%"}, {"measurement": "viability, T/C", "setting": "[3]", "result": 102, "unit": "%"}, {"measurement": "viability, T/C", "setting": "[4]", "result": 104, "unit": "%"}, {"measurement": "viability, T/C", "setting": "second compound 0.316 µM, first compound 0.316 µM", "result": 104, "unit": "%"}, {"measurement": "viability, T/C", "setting": "second compound 0.316 µM, first compound 1 µM", "result": 101, "unit": "%"}, {"measurement": "viability, T/C", "setting": "second compound 0.316 µM, first compound 3.16 µM", "result": 110, "unit": "%"}, {"measurement": "viability, T/C", "setting": "second compound 0.316 µM, first compound 10 µM", "result": 20, "unit": "%"}, {"measurement": "viability, T/C", "setting": "[5]", "result": 104, "unit": "%"}, {"measurement": "viability, T/C", "setting": "[6]", "result": 104, "unit": "%"}, {"measurement": "viability, T/C", "setting": "second compound 1 µM, first compound 0.316 µM", "result": 107, "unit": "%"}, {"measurement": "viability, T/C", "setting": "second compound 1 µM, first compound 1 µM", "result": 108, "unit": "%"}, {"measurement": "viability, T/C", "setting": "second compound 1 µM, first compound 3.16 µM", "result": 110, "unit": "%"}, {"measurement": "viability, T/C", "setting": "second compound 1 µM, first compound 10 µM", "result": 17.6, "unit": "%"}, {"measurement": "viability, T/C", "setting": "[7]", "result": 105, "unit": "%"}, {"measurement": "viability, T/C", "setting": "[8]", "result": 103, "unit": "%"}, {"measurement": "viability, T/C", "setting": "second compound 3.16 µM, first compound 0.316 µM", "result": 104, "unit": "%"}, {"measurement": "viability, T/C", "setting": "second compound 3.16 µM, first compound 1 µM", "result": 108, "unit": "%"}, {"measurement": "viability, T/C", "setting": "second compound 3.16 µM, first compound 3.16 µM", "result": 106, "unit": "%"}, {"measurement": "viability, T/C", "setting": "second compound 3.16 µM, first compound 10 µM", "result": 24.3, "unit": "%"}, {"measurement": "viability, T/C", "setting": "[9]", "result": 97.6, "unit": "%"}, {"measurement": "viability, T/C", "setting": "[10]", "result": 99.6, "unit": "%"}, {"measurement": "viability, T/C", "setting": "second compound 10 µM, first compound 0.316 µM", "result": 99.8, "unit": "%"}, {"measurement": "viability, T/C", "setting": "second compound 10 µM, first compound 1 µM", "result": 101, "unit": "%"}, {"measurement": "viability, T/C", "setting": "second compound 10 µM, first compound 3.16 µM", "result": 101, "unit": "%"}, {"measurement": "viability, T/C", "setting": "second compound 10 µM, first compound 10 µM", "result": 20.5, "unit": "%"}]}, {"compound": "Cn1ncnc1C1c2n[nH]c(=O)c3cc(F)cc(c23)NC1c1ccc(F)cc1", "note": "(stereo not given) + NC1CCC(NC2CC2c2ccccc2)CC1", "values": [{"measurement": "IC50", "setting": "second compound 0.1 µM", "result": "> 0.1", "unit": "µM"}, {"measurement": "IC50", "setting": "second compound 0.316 µM", "result": "> 0.1", "unit": "µM"}, {"measurement": "IC50", "setting": "second compound 1 µM", "result": "> 0.1", "unit": "µM"}, {"measurement": "IC50", "setting": "second compound 3.16 µM", "result": "> 0.1", "unit": "µM"}, {"measurement": "IC50", "setting": "second compound 10 µM", "result": "> 0.1", "unit": "µM"}, {"measurement": "viability, T/C", "setting": "second compound 0.1 µM, first compound 0.000316 µM", "result": 102, "unit": "%"}, {"measurement": "viability, T/C", "setting": "second compound 0.1 µM, first compound 0.001 µM", "result": 97.6, "unit": "%"}, {"measurement": "viability, T/C", "setting": "second compound 0.1 µM, first compound 0.00316 µM", "result": 101, "unit": "%"}, {"measurement": "viability, T/C", "setting": "second compound 0.1 µM, first compound 0.01 µM", "result": 101, "unit": "%"}, {"measurement": "viability, T/C", "setting": "[1]", "result": 101, "unit": "%"}, {"measurement": "viability, T/C", "setting": "[2]", "result": 97, "unit": "%"}, {"measurement": "viability, T/C", "setting": "second compound 0.316 µM, first compound 0.000316 µM", "result": 101, "unit": "%"}, {"measurement": "viability, T/C", "setting": "second compound 0.316 µM, first compound 0.001 µM", "result": 102, "unit": "%"}, {"measurement": "viability, T/C", "setting": "second compound 0.316 µM, first compound 0.00316 µM", "result": 102, "unit": "%"}, {"measurement": "viability, T/C", "setting": "second compound 0.316 µM, first compound 0.01 µM", "result": 99, "unit": "%"}, {"measurement": "viability, T/C", "setting": "[3]", "result": 101, "unit": "%"}, {"measurement": "viability, T/C", "setting": "[4]", "result": 98.9, "unit": "%"}, {"measurement": "viability, T/C", "setting": "second compound 1 µM, first compound 0.000316 µM", "result": 108, "unit": "%"}, {"measurement": "viability, T/C", "setting": "second compound 1 µM, first compound 0.001 µM", "result": 102, "unit": "%"}, {"measurement": "viability, T/C", "setting": "second compound 1 µM, first compound 0.00316 µM", "result": 99.7, "unit": "%"}, {"measurement": "viability, T/C", "setting": "second compound 1 µM, first compound 0.01 µM", "result": 103, "unit": "%"}, {"measurement": "viability, T/C", "setting": "[5]", "result": 102, "unit": "%"}, {"measurement": "viability, T/C", "setting": "[6]", "result": 101, "unit": "%"}, {"measurement": "viability, T/C", "setting": "second compound 3.16 µM, first compound 0.000316 µM", "result": 100, "unit": "%"}, {"measurement": "viability, T/C", "setting": "second compound 3.16 µM, first compound 0.001 µM", "result": 103, "unit": "%"}, {"measurement": "viability, T/C", "setting": "second compound 3.16 µM, first compound 0.00316 µM", "result": 104, "unit": "%"}, {"measurement": "viability, T/C", "setting": "second compound 3.16 µM, first compound 0.01 µM", "result": 104, "unit": "%"}, {"measurement": "viability, T/C", "setting": "[7]", "result": 104, "unit": "%"}, {"measurement": "viability, T/C", "setting": "[8]", "result": 101, "unit": "%"}, {"measurement": "viability, T/C", "setting": "second compound 10 µM, first compound 0.000316 µM", "result": 99.3, "unit": "%"}, {"measurement": "viability, T/C", "setting": "second compound 10 µM, first compound 0.001 µM", "result": 99.6, "unit": "%"}, {"measurement": "viability, T/C", "setting": "second compound 10 µM, first compound 0.00316 µM", "result": 101, "unit": "%"}, {"measurement": "viability, T/C", "setting": "second compound 10 µM, first compound 0.01 µM", "result": 101, "unit": "%"}, {"measurement": "viability, T/C", "setting": "[9]", "result": 98.5, "unit": "%"}, {"measurement": "viability, T/C", "setting": "[10]", "result": 96.1, "unit": "%"}]}]}
